In patent publication US12421254B2, “KRAS modulators and uses thereof” (Quanta Therapeutics, Inc., priority 2023, dated 2025):

Experiments:
[1] = biological target: GST-tagged KRAS-G12V (2-169) (Homo sapiens, UniProt P01116, G12V); experiment: Nucleotide exchange assay (NEA), SOS-mediated, HTRF, KRAS G12V; format: biochemical; conditions: Table 4; IC50 extracted at 90 min; 80 nM SOS
In short: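 Exchange onto fluorescent GTP-DY-647P1 (150 nM final) catalysed by 80 nM SOS1cat was followed by Tb-anti-GST HTRF at RT for up to 90 min, after 1 h compound pre-incubation with 0.25 nM GST-tagged KRAS-G12V (2-169), pH 7.3. DMSO = 0%, no-SOS blank = 100%; 4-parameter IC50 taken at 90 min.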

[2] = biological target: GST-tagged KRAS-G12D (2-169) (Homo sapiens, UniProt P01116, G12D); experiment: Nucleotide exchange assay (NEA), SOS-mediated, HTRF, KRAS G12D; format: biochemical; conditions: Table 4; IC50 extracted at 30 min; 20 nM SOScat; read-out: NEA G12D IC50
Sequence of GST-tagged KRAS-G12D (2-169) (P01116 2-169 isoform P01116-2 G12D): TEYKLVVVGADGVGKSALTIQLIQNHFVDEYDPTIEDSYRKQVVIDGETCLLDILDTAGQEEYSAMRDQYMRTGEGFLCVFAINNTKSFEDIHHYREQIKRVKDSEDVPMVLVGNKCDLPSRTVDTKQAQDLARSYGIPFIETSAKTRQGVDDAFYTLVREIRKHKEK
In short: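 SOS1cat-driven loading of fluorescent GTP-DY-647P1 (150 nM) onto GST-KRAS-G12D (2-169, 0.25 nM) read by time-resolved FRET; SOScat 20 nM, compound preincubated with KRAS 1 h at RT. Signal blanked to no-SOS reactions, normalized to DMSO; IC50 fitted from the 30-min read.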

[3] = test system: phospho-ERK in GP2D (KRAS-G12D) cells; experiment: pERK In Cell Western (ICW) assay (Method B), GP2D; format: cell-based; conditions: GP2d, 3 h, Table 4
In short: (§1)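 In-cell western read-out: phospho-ERK (800 nm) normalized to DRAQ5 (700 nm) per well, expressed as percent of blank control, IC50 from 4-parameter variable-slope fit. Compounds were applied as ½-log 9-point series for 3 h at 37 °C to cells plated the previous day.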

[4] = test system: phospho-ERK in SW620 (KRAS-G12V) cells; experiment: pERK In Cell Western (ICW) assay (Method B), SW620; format: cell-based; conditions: Homo sapiens, SW-620, 3 h, Table 4
In short: as §1

Sequence of GST-tagged KRAS-G12V (2-169) (P01116 2-169 isoform P01116-2 G12V): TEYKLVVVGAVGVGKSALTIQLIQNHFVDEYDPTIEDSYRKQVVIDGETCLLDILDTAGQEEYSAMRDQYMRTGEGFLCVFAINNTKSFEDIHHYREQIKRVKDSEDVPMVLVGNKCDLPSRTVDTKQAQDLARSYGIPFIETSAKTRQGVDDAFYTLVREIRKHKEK

With `CCN(c1nc(OC[C@@]23CCCN2C[C@H](F)C3)nc(N2CC3(C2)c2c(sc(N)c2C#N)CN3C)n1)[C@H](C)c1cccnc1N` [Compound 226, 2-amino-1′-[4-[[(1R)-1-(2-amino-3-pyridyl)ethyl]-ethyl-amino]-6-[[(2R,8S)-2-fluoro-1,2,3,5,6,7-hexahydropyrrolizin-8-yl]methoxy]-1,3,5-triazin-2-yl]-5-methyl-spiro[6H-thieno[2,3-c]pyrrole-4,3′-azetidine]-3-carbonitrile] the IC50 [1] was < 10 nM, the IC50 [2] was < 10 nM and the IC50 [3] was 10 to 100 nM. It also gave an IC50 [4] of 10 to 100 nM.

For `C[C@H](c1cccnc1N)N(c1nc(OC[C@@]23CCCN2C[C@H](F)C3)nc(N2CC3(C2)SCc2sc(N)c(C#N)c23)n1)C1CC1` [Compound 264, 2-amino-1′-[4-[[(1R)-1-(2-amino-3-pyridyl)ethyl]-cyclopropyl-amino]-6-[[(2R,8S)-2-fluoro-1,2,3,5,6,7-hexahydropyrrolizin-8-yl]methoxy]-1,3,5-triazin-2-yl]spiro[6H-thieno[3,4-b]thiophene-4,3′-azetidine]-3-carbonitrile], the IC50 [1] was < 10 nM, the IC50 [2] was < 10 nM and the IC50 [3] was 10 to 100 nM. For the same compound, the IC50 [4] was < 10 nM.

For `CC(c1cccnc1N)N(C)c1nc(OC[C@@]23CCCN2C[C@H](F)C3)nc(N2CC3(C2)SCc2sc(N)c(C#N)c23)n1` (single isomer, unassigned) [Compound 120A, 2-amino-1′-[4-[[(1*)-1-(2-amino-3-pyridyl)ethyl]-methyl-amino]-6-[[(2R,8S)-2-fluoro-1,2,3,5,6,7-hexahydropyrrolizin-8-yl]methoxy]-1,3,5-triazin-2-yl]spiro[6H-thieno[3,4-b]thiophene-4,3′-azetidine]-3-carbonitrile], the IC50 [1] was < 10 nM, the IC50 [2] was < 10 nM and the IC50 [3] was < 10 nM. For the same compound, the IC50 [4] was < 10 nM.

`C=C1CN2CCCC2(COc2nc(N3CC4(CCc5sc(N)c(C#N)c54)C3)nc(N3CCC[C@@](C)(O)C3)n2)C1` (stereo partly drawn) [Compound 55, 2-amino-1′-[4-[(3R)-3-hydroxy-3-methyl-1-piperidyl]-6-[(6-methylene-2,3,5,7-tetrahydro-1H-pyrrolizin-8-yl)methoxy]-1,3,5-triazin-2-yl]spiro[5,6-dihydrocyclopenta[b]thiophene-4,3′-azetidine]-3-carbonitrile] was tested, and the IC50 [1] was < 10 nM, the IC50 [2] was < 10 nM and the IC50 [3] was 10 to 100 nM. It also gave an IC50 [4] of 100 to 1000 nM.

In the case of `CCN(c1nc(OCCN2CCCCC2)nc(N2CC3(C2)SCc2sc(N)c(C#N)c23)n1)[C@H](C)c1cccnc1N` [Compound 178, 2-amino-1′-[4-[[(1R)-1-(2-amino-3-pyridyl)ethyl]-ethyl-amino]-6-[2-(1-piperidyl)ethoxy]-1,3,5-triazin-2-yl]spiro[6H-thieno[3,4-b]thiophene-4,3′-azetidine]-3-carbonitrile], the IC50 [1] is reported as < 10 nM, the IC50 [2] is reported as 10 to 100 nM and the IC50 [3] is reported as 100 to 1000 nM. The IC50 [4] was 10 to 100 nM.

Work on `CC1(C#N)CCCN(c2nc(OCC3(CN4CCOCC4)CC3)nc(N3CC4(CCc5sc(N)c(C#N)c54)C3)n2)C1` (stereo not drawn) [Compound 57, 2-amino-1′-[4-(3-cyano-3-methyl-1-piperidyl)-6-[[1-(morpholinomethyl)cyclopropyl]methoxy]-1,3,5-triazin-2-yl]spiro[5,6-dihydrocyclopenta[b]thiophene-4,3′-azetidine]-3-carbonitrile] yielded an IC50 [1] of 10 to 100 nM, an IC50 [2] of 100 to 1000 nM and an IC50 [3] of 1000 to 20000 nM. The IC50 [4] was 1000 to 20000 nM.

`CC1(NC#N)CCCN(c2nc(OC[C@@]34CCCN3C[C@H](F)C4)nc(N3CC4(CCc5sc(N)c(C#N)c54)C3)n2)C1` (stereo partly drawn) [Compound 52, [1-[4-(2-amino-3-cyano-spiro[5,6-dihydrocyclopenta[b]thiophene-4,3′-azetidine]-1′-yl)-6-[[(2R,8S)-2-fluoro-1,2,3,5,6,7-hexahydropyrrolizin-8-yl]methoxy]-1,3,5-triazin-2-yl]-3-methyl-3-piperidyl]cyanamide] was tested, and the IC50 [1] was 10 to 100 nM, the IC50 [2] was 10 to 100 nM and the IC50 [3] was 100 to 1000 nM. The IC50 [4] was 1000 to 20000 nM.

`C[C@@]1(O)CCCN(c2nc(OC[C@@]34CCCN3C[C@H](F)C4)nc(N3CC4(C3)c3c(sc(N)c3C#N)CC3CC34)n2)C1` (stereo partly drawn) [Compound 51, 2-amino-1′-[4-[[(2R,8S)-2-fluoro-1,2,3,5,6,7-hexahydropyrrolizin-8-yl]methoxy]-6-[(3R)-3-hydroxy-3-methyl-1-piperidyl]-1,3,5-triazin-2-yl]spiro[4a,5,5a,6-tetrahydrocyclopropa[f]benzothiophene-4,3′-azetidine]-3-carbonitrile] gave an IC50 [1] of 10 to 100 nM, an IC50 [2] of 10 to 100 nM and an IC50 [3] of 100 to 1000 nM. It also gave an IC50 [4] of 1000 to 20000 nM.

With `CC(CO)N(c1nc(OC[C@@]23CCCN2C[C@H](F)C3)nc(N2CC3(C2)SCc2sc(N)c(C#N)c23)n1)C1(C#N)CC1` (stereo partly drawn) [Compound 262, 2-amino-1′-[4-[(1-cyanocyclopropyl)-(2-hydroxy-1-methyl-ethyl)amino]-6-[[(2R,8S)-2-fluoro-1,2,3,5,6,7-hexahydropyrrolizin-8-yl]methoxy]-1,3,5-triazin-2-yl]spiro[6H-thieno[3,4-b]thiophene-4,3′-azetidine]-3-carbonitrile] the IC50 [1] was < 10 nM, the IC50 [2] was < 10 nM and the IC50 [3] was 10 to 100 nM. It also gave an IC50 [4] of 10 to 100 nM.

In the case of `CN(Cc1c(F)ccnc1N)c1nc(OC[C@@]23CCCN2C[C@H](F)C3)nc(N2CC3(C2)SCc2sc(N)c(C#N)c23)n1` [Compound 179, 2-amino-1′-[4-[(2-amino-4-fluoro-3-pyridyl)methyl-methyl-amino]-6-[[(2R,8S)-2-fluoro-1,2,3,5,6,7-hexahydropyrrolizin-8-yl]methoxy]-1,3,5-triazin-2-yl]spiro[6H-thieno[2,3-c]thiophene-4,3′-azetidine]-3-carbonitrile], the IC50 [1] is reported as < 10 nM, the IC50 [2] is reported as 10 to 100 nM and the IC50 [3] is reported as 100 to 1000 nM. It also gave an IC50 [4] of 10 to 100 nM.

With `C[C@@]1(O)C[C@H](F)CN(c2nc(OC[C@@]34CCCN3C[C@H](F)C4)nc(N3CC4(C3)SCc3sc(N)c(C#N)c34)n2)C1` [Compound 143, 2-amino-1′-[4-[[(2R,8S)-2-fluoro-1,2,3,5,6,7-hexahydropyrrolizin-8-yl]methoxy]-6-[(3R,5S)-5-fluoro-3-hydroxy-3-methyl-1-piperidyl]-1,3,5-triazin-2-yl]spiro[6H-thieno[3,4-b]thiophene-4,3′-azetidine]-3-carbonitrile] the IC50 [1] was < 10 nM, the IC50 [2] was < 10 nM and the IC50 [3] was < 10 nM. For the same compound, the IC50 [4] was 10 to 100 nM.

For `CCN(c1nc(OC[C@@]23CCCN2C[C@H](F)C3)nc(N2CC3(CCc4sc(N)c(C#N)c43)C2)n1)[C@H](C)c1cccnc1N` [Compound 173, 2-amino-1′-[4-[[(1R)-1-(2-amino-3-pyridyl)ethyl]-ethyl-amino]-6-[[(2R,8S)-2-fluoro-1,2,3,5,6,7-hexahydropyrrolizin-8-yl]methoxy]-1,3,5-triazin-2-yl]spiro[5,6-dihydrocyclopenta[b]thiophene-4,3′-azetidine]-3-carbonitrile], the IC50 [1] was < 10 nM, the IC50 [2] was < 10 nM and the IC50 [3] was < 10 nM. For the same compound, the IC50 [4] was < 10 nM.

With `CC(c1ccnnc1N)N(C)c1nc(OC[C@@]23CCCN2C[C@H](F)C3)nc(N2CC3(CCc4sc(N)c(C#N)c43)C2)n1` (stereo partly drawn) [Compound 109, 2-amino-1′-[4-[1-(3-aminopyridazin-4-yl)ethyl-methyl-amino]-6-[[(2R,8S)-2-fluoro-1,2,3,5,6,7-hexahydropyrrolizin-8-yl]methoxy]-1,3,5-triazin-2-yl]spiro[5,6-dihydrocyclopenta[b]thiophene-4,3′-azetidine]-3-carbonitrile] the IC50 [1] was < 10 nM, the IC50 [2] was < 10 nM and the IC50 [3] was 100 to 1000 nM. It also gave an IC50 [4] of 10 to 100 nM.

`CCN(c1nc(OCC2CCC3C(=O)N(C)CCN23)nc(N2CC3(C2)SCc2sc(N)c(C#N)c23)n1)C(C)c1cccnc1N` (mixture of isomers) [Compound 210, 1′-[4-[[(6SR,8aSR)-2-methyl-1-oxo-3,4,6,7,8,8a-hexahydropyrrolo[1,2-a]pyrazin-6-yl]methoxy]-6-[[(IR)-1-(2-amino-3-pyridyl)ethyl]-ethyl-amino]-1,3,5-triazin-2-yl]-2-amino-spiro[6H-thieno[3,4-b]thiophene-4,3′-azetidine]-3-carbonitrile] was tested, and the IC50 [1] was < 10 nM, the IC50 [2] was < 10 nM and the IC50 [3] was 100 to 1000 nM. For the same compound, the IC50 [4] was 10 to 100 nM.

Compound `N#Cc1c(N)sc2c1C1(CC2)CN(c2nc(OC[C@@]34CCCN3C[C@H](F)C4)nc(N3CCCCC3C#N)n2)C1` (stereo partly drawn) [Compound 44, 2-amino-1′-[4-(2-cyano-1-piperidyl)-6-[[(2R,8S)-2-fluoro-1,2,3,5,6,7-hexahydropyrrolizin-8-yl]methoxy]-1,3,5-triazin-2-yl]spiro[5,6-dihydrocyclopenta[b]thiophene-4,3′-azetidine]-3-carbonitrile] has an IC50 [1] of 10 to 100 nM, an IC50 [2] of 10 to 100 nM and an IC50 [3] of 100 to 1000 nM. It also gave an IC50 [4] of 1000 to 20000 nM.
